Measurements as given in ChEMBL document CHEMBL1158295, “Five new monotetrahydrofuran ring acetogenins from the leaves of Annona muricata” (J Nat Prod, 1996).
Values after ≈ are worked out from the molar mass of the structure shown.

Key:
PC-3 = assay: Cytotoxicity against human PC3 cells; type: functional; conditions: read-out: ED50 (the source's name)
Artemia = assay: Toxicity to brine shrimp; type: organism-based; conditions: in vivo
A549 = assay: Cytotoxicity against human A549 cells; type: functional; conditions: read-out: ED50 (the source's name)
MCF7 = assay: Cytotoxicity against human MCF7 cells; type: functional; conditions: read-out: ED50 (the source's name)
HT-29 = assay: Cytotoxicity against human HT29 cells; type: functional; conditions: read-out: ED50 (the source's name)
MIA PaCa-2 = assay: Cytotoxicity against human MIAPaCa2 cells; type: functional; conditions: read-out: ED50 (the source's name)
A498 = assay: Cytotoxicity against human A498 cells; type: functional; conditions: read-out: ED50 (the source's name)

Compound	EC50 (PC-3) [µg/mL]	LC50 (Artemia)	EC50 (A549) [µg/mL]	EC50 (MCF7) [µg/mL]	EC50 (HT-29) [µg/mL]	EC50 (MIA PaCa-2) [µg/mL]	EC50 (A498) [µg/mL]
CCCCCCCCCCCC[C@@H](O)[C@H](O)CC[C@H](O)[C@@H]1CC[C@@H](C[C@H](O)CCCCC[C@@H](O)CC2=C[C@H](C)OC2=O)O1 [ANNOPENTOCIN A]	1.14 (≈ 1.86 µM)	8.9 ppm	0.171 (≈ 0.279 µM)	17.9 (≈ 29.3 µM)	1.63 (≈ 2.66 µM)	0.0358 (≈ 0.0584 µM)	0.607 (≈ 0.99 µM)
CCCCCCCCCCCC[C@H](O)[C@@H](O)CC[C@H](O)[C@@H]1CC[C@@H](C[C@H](O)CCCCC[C@@H](O)CC2=C[C@H](C)OC2=O)O1 [ANNOPENTOCIN B]	0.212 (≈ 0.346 µM)	11.2 ppm	0.0274 (≈ 0.0447 µM)	3.56 (≈ 5.81 µM)	1.64 (≈ 2.68 µM)	0.162 (≈ 0.264 µM)	0.379 (≈ 0.618 µM)
CCCCCCCCCCCC[C@H](O)[C@H](O)CC[C@H](O)[C@@H]1CC[C@@H](C[C@H](O)CCCCC[C@@H](O)CC2=C[C@H](C)OC2=O)O1 [ANNOPENTOCIN C]	0.228 (≈ 0.372 µM)	13.8 ppm	0.0206 (≈ 0.0336 µM)	2.97 (≈ 4.85 µM)	1.24 (≈ 2.02 µM)	0.428 (≈ 0.698 µM)	0.258 (≈ 0.421 µM)
COc1cccc2c1C(=O)c1c(O)c3c(c(O)c1C2=O)C[C@@](O)(C(=O)CO)C[C@@H]3O[C@H]1C[C@H](N)[C@H](O)[C@H](C)O1 [DOXORUBICIN]	0.0583 (≈ 0.107 µM)	2.57 ×10⁻¹ ppm	0.00428 (≈ 0.00787 µM)	0.495 (≈ 0.911 µM)	0.0498 (≈ 0.0916 µM)	0.00423 (≈ 0.00778 µM)	0.0462 (≈ 0.085 µM)
